Patent US11253524B2 (Gilead Sciences, Inc., priority 2018, dated 2022)

Tests used:
OATP1B1 = target: T1, OATP1B1 (Homo sapiens, UniProt Q9Y6L6); assay: OATP1B1 inhibition assay using Fluo-3 as probe substrate, CHO cells; type: cell-based; set-up: expressed in transfected cells; host or cells: CHO cells; conditions: for IC50: OATP1B1, Fluo-3; for inhibition at 1 h, 100 µM: human, CHO cells transfected with human OATP1B1, pH 7.4, probe Fluo-3 (2 μM), OATP1B1, Fluo-3, at 100 μM, read-out: Maximum inhibition at highest test conc. (% of control)
T1 sequence (Q9Y6L6 1-691): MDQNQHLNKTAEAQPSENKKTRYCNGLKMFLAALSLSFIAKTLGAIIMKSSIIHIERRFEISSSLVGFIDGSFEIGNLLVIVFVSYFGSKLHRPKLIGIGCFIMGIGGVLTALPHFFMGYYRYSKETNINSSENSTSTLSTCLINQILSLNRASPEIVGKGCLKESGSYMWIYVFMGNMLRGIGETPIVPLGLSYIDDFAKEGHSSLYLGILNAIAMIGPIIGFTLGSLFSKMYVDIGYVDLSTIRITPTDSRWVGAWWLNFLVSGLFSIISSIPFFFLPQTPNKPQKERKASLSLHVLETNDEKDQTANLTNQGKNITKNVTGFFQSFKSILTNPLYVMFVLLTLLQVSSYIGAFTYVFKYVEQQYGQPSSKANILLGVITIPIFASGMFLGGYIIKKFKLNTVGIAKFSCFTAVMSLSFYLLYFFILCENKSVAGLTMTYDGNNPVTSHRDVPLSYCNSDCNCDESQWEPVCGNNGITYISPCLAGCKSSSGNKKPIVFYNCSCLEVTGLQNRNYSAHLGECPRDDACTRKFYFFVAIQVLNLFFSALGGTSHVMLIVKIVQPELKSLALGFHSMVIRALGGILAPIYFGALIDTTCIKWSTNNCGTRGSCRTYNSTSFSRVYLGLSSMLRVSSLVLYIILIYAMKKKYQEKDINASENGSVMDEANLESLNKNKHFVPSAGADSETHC
Description: (§1) Chinese Hamster Ovary (CHO) cells, either wild type or transfected with the genes encoding human OATP1B1 or OATP1B3, were maintained in Dulbecco's Modification of Eagle's Medium (DMEM) containing 1,000 mg/L D-glucose, L-glutamine, 25 mM HEPES buffer, and 110 mg/L sodium pyruvate, 1% Pen/Strep, 10% fetal bovine serum, 0.05 mg/mL L-proline and 0.5 mg/mL of geneticin G-418. Cells were maintained in incubators set at 37° C., 90% humidity and 5% CO2. OATP1B1 or OATP1B3 overexpressing CHO cells were seeded in BioCoat Poly-D-Lysine coated 96 well black cell culture plates with clear bottoms at a density of 1×10^5 cells/well. Sodium butyrate (10 mM) was added to the OATP1B1 and OATP1B3 cells to increase the protein expression level, and the cells were grown to confluence overnight. The assay buffer contained 142 mM NaCl, 5 mM KCl, 1 mM KH2PO4, 1.2 mM MgSO4, 1.5 mM CaCl2, 5 mM Glucose and 12.5 mM HEPES (pH 7.4). After removal of the media and before adding test compounds, the cells were washed twice with 37° C. assay buffer followed by a 0.5 h pre-incubation with assay buffer. Test compounds were serially diluted in DMSO at 250-fold of final test concentrations to create the compound spiking solutions. Compounds were then spiked into assay buffer containing 2 μM Fluo-3 and incubated with cells for 1 h. Following removal of assay buffer containing Fluo-3 and test compound, cells were washed 3 times with 200 μl of ice cold assay buffer and then lysed at room temperature for 15 minutes in a lysis buffer containing […] in a 1 mM CaCl2 solution. Substrate accumulations were determined for Fluo-3 fluorescence at an excitation of 485 nm and emission of 530 nm.
(§2) Percent inhibition was calculated according to the following equation: % inhibition=[1−{[OATP]i−[WT]ni}/{[OATP]ni−[WT]ni}]*100 where: [OATP]i represent the substrate accumulation in the presence of test compound for either OATP1B1, OATP1B3, or OATP2B1 cells; [OATP]ni represents the substrate accumulation in the absence of test compound for either OATP1B1, OATP1B3, or OATP2B1 cells, respectively; and [WT]ni represents the substrate accumulation in the absence of test compound for wild type cells or Mock cells, respectively. IC50 Determination in Transporter Assays
(§3) IC50 was determined according to the procedures described in Example 5. […] Results are reported as NIO (no interaction observed).

OATP1B3 = target: T2, OATP1B3 (Homo sapiens, UniProt Q9NPD5); assay: OATP1B3 inhibition assay using Fluo-3 as probe substrate, CHO cells; type: cell-based; set-up: expressed in transfected cells; host or cells: CHO cells; conditions: for Maximum inhibition at highest test conc. (% of control) / inhibition at 1 h, 100 µM: OATP1B3, Fluo-3, at 100 μM; for IC50 (μM): OATP1B3, Fluo-3, NIO = no interaction observed; for inhibition at 1 h, 100 µM: human, CHO cells transfected with human OATP1B3, pH 7.4, probe Fluo-3 (2 μM), read-out: Maximum inhibition at highest test conc. (% of control)
T2 sequence (Q9NPD5 1-702): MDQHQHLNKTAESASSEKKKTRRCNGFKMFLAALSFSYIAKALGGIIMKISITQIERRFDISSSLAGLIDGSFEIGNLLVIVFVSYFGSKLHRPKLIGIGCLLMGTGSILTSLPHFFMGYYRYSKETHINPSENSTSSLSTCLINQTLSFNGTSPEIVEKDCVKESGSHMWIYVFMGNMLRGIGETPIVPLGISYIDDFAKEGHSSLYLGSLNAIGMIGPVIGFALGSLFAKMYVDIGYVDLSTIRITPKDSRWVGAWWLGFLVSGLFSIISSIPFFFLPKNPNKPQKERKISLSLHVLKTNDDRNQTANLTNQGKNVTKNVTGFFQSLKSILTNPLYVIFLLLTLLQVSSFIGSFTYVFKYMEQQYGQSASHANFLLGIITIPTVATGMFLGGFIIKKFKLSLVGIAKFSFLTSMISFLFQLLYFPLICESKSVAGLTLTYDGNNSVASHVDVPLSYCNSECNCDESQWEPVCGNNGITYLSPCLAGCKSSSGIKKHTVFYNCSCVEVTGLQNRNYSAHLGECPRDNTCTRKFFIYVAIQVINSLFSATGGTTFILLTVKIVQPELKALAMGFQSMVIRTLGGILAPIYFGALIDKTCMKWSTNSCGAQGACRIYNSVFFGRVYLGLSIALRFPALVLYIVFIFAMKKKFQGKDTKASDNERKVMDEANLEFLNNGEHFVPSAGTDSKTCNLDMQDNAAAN
Description: as §1, §2, §3

SMILES | IC50 (OATP1B1) | inhibition at 1 h, 100 µM (OATP1B1) | Maximum inhibition at highest test conc. (% of control) (OATP1B3; 100 µM) | IC50 (μM) (OATP1B3) | inhibition at 1 h, 100 µM (OATP1B3) | Maximum inhibition at highest test conc. (% of control) (OATP1B3)
O=C(NCc1c(F)cc(F)cc1F)c1cn2c(c(O[C@@H]3O[C@H](C(=O)O)[C@@H](O)[C@H](O)[C@H]3O)c1=O)C(=O)N1[C@H]3CC[C@H](C3)O[C@@H]1C2 [Metabolite M15] | > 100 µM | 39% | minimal to no inhibition | NIO | 0% | 
O=C(NCc1c(F)cc(F)c(OS(=O)(=O)O)c1F)c1cn2c(c(O)c1=O)C(=O)N1C(C2)O[C@@H]2CC[C@H]1C2 (stereo partly drawn) [Metabolite M20] | 90.1 µM | 54% |  | NIO | 18% | minimal to no inhibition
O=C(NCc1c(F)cc(F)c(O)c1F)c1cn2c(c(O)c1=O)C(=O)N1[C@H]3CC[C@H](C3)O[C@@H]1C2 [Metabolite M23] | 99.9 µM | 51% |  | NIO | 20% | minimal to no inhibition
